Reference: US20250345458A1, “COMPLEXING AGENT SALT FORMULATIONS OF PHARMACEUTICAL COMPOUNDS AT LOW STOICHIOMETRIC RATIOS” (Bexson Biomedical, Inc., priority 2022, published 2025)
“And” between values parts separate entries of the source, which are not always exact repeats. Equal values may be shown once. “Also recorded” adds a separate entry of the source. Where a name gives a salt, the structure may show the parent alone. Marks after values point to notes of the source that are not given here.

Columns and labels:
[1] = pH of API formulations (pH meter); type: physicochemical; conditions: for final pH: after 2M NaOH
[2] = literature value; cited from earlier work
[3] = Osmolality of API formulations (micro osmometer, triplicate); type: physicochemical
Method: Osmolality readings were obtained on an Advanced Instruments Advanced™ Micro Osmometer Model 3300 (Advanced Instruments, Inc. Norwood, MA, USA). Saline solutions (0.9% and 3%) were run as positive controls. Each sample was calculated as the mean from back-to-back triplicate measurements. When replicate batches were measured, data was reported as mean±SEM.
The procedure was performed on a 2 mL scale. […] Benzethonium chloride (20 μL of a 1% solution, 0.01% final concentration) was added via micropipette. The pH was adjusted to ˜7.00 with 2M sodium hydroxide, or either 1M or 2M HCl in some cases, and then the mixture was transferred to a 2 mL volumetric flask to be diluted with HPLC grade water. […]
Method 1: In a 5 mL borosilicate glass test tube which contained a Teflon-coated magnetic stir bar, Captisol®-Na+ ([…], H+ equivalents, moisture corrected) was dissolved in HPLC grade water (1.6-1.7 mL), API salt (HCl in most cases) (70 mg/mL FB equivalents) was added and the mixture was stirred until a homogenous transparent solution formed. Benzethonium chloride (20 μL of a 1% solution, giving a 0.01% final concentration) was added via micropipette. The pH was adjusted to ˜7.00 with 1M or 2M sodium hydroxide, or either 1M or 2M HCl in some cases, and then the mixture was transferred to a 2 mL volumetric flask to be diluted with HPLC grade water. […]
Benzethonium chloride (20 μL of a 1% solution, giving a 0.01% final concentration) was added via micropipette. The pH was adjusted to ˜7.00 with 1M or 2M sodium hydroxide, or either 1M or 2M HCl in some cases, and then the mixture transferred to a 2 mL volumetric flask to be diluted with HPLC grade water. […]
The solution was transferred to a 2 mL volumetric flask and diluted to the target volume with HPLC grade water. […]

[4] = cited from earlier work
[5] = Dissolution of API freebase in aqueous CapAcid / Captisol solutions at defined API:CapAcid ratios, visual inspection and NaOH titration; conditions: for Successful in a 70 mg/mL API-CapAcid Formulation (Y/N): 70 mg/mL FB
[6] = in water, cited from earlier work; for Reported Freebase Solubility: vendor or literature value
[7] = Osmolality of API formulations (micro osmometer, triplicate); type: physicochemical; remark: listed apart in the source
[8] = cited from earlier work; remark: listed apart in the source
[9] = Concentration test of rimantadine HCl in water; type: physicochemical
Method: A solution of 50 mg/mL rimantadine HCl, FB equivalents, (120.3 mg, 0.56 mmol), was prepared by adding 1.7 mL of HPLC grade water and an addition of a solution of benzethonium chloride (20 μL, […], 0.01% final concentration). […] It was diluted until it did dissolve, which took a total of 4.6 mL of HPLC (including the initial 1.7 mL). The solution was left to stir overnight. The solution was diluted to 5 mL, making the final concentration 20 mg/mL. The pH was 6.83 and the solution was filtered through a 0.20 micron syringe filter. The osmolality was 205 mOsm/kg.
A separate test was performed on another 50 mg/mL solution of rimantadine HCl, FB equivalents (60.2 mg, 0.28 mmol), dissolved in 800 μL of HPLC grade water and an addition of a solution of benzethonium chloride (10 μL, 1 mg/mL, 0.01% final concentration).

[10] = Visual dissolution / precipitation of API free base-CapAcid formulations at stated API:CapAcid ratios; type: physicochemical
[11] = Reported solubility in water of APIs (freebase and salt); type: physicochemical
Method: Table 5 lists the solubility and pKa values of the various APIs described above.
A challenge was that reliable solubility data for certain APIs was difficult to locate (especially for the freebase forms). As such in a number of instances only predicted values could be located and in the case of rimantidine HCl this value was inconsistent with our empirical results. Likewise, the drugbank predicted value for tigecycline was 0.01455 mg/mL, whereas a literature value was 0.45 mg/mL. The solubility of a range of poor to moderately to highly soluble APIs as freebases as well as common commercial API salt forms will be determined.

[12] = Stability of tigecycline FB CapAcid solution on standing; type: physicochemical; conditions: 70 mg/mL FB with 1.1 molar equivalents of CapAcid, FIG. 1A
Method: The formulation of Tigecycline FB CapAcid was prepared as follows. The preparation procedure for Tigecycline FB CapAcid Formulation was modified from the general procedure. A solution of 70 mg/mL Tigecycline FB (69.9 mg, 0.12 mmol) and 1.1 equivalents of CapAcid, H^+ equivalents, (43.7 mg moisture corrected, 40.8 mg active, 0.02 mmol, 0.13 mmol H^+) was prepared by dissolving CapAcid in 700 μL of HPLC grade water, then adding the freebase and stirring until a homogenous solution formed. Benzethonium chloride (10 μL, 1 mg/mL, 0.01% final concentration) was added to the solution. NaOH (2M) was added until the pH was 7.00±0.01. The solution was diluted to 1 mL and the final pH was determined to be 6.99. […] The solution was filtered through a 0.45 micron syringe filter.

[13] = API-CapAcid salts prepared in ethanol, then 70 mg of solid added to 1 mL water (visual); type: physicochemical
Method: The resulting solid API-CapAcid salts were then obtained as solids by evaporation of the ethanol, followed by lyophilization.
In a scintillation vial, a solution of API FB (100 mg) and CapAcid (1 molar equivalent, moisture corrected) was prepared by dissolving Cap Acid in 200 proof ethanol (5 mL) and then adding the freebase API. […] Whether or not the freebase dissolved after the second addition of ethanol, the initial pH, prior to titration, was recorded. The vial was then wrapped in foil and left uncovered in the hood to allow the ethanol to evaporate. After the ethanol fully evaporated, a small amount of HPLC grade water (3-5 mL) was added to each to see if the product would dissolve or become a suspension in the water. The solution was then lyophilized to remove the water. The product was ground with a stir rod and 70±0.1 mg was added to 1 mL of water to see if it would dissolve.

[14] = 70 mg/mL API FB, 1 equivalent 6M HCl, 1.1 equivalents Captisol®-Na^+, before NaOH/HCl
[15] = 70 mg/mL API FB, 1.1 equivalents CapAcid, before NaOH/HCl
[16] = 70 mg/mL API FB and 1 equivalent of 6M HCl in water
[17] = 70 mg/mL API FB, 1 equivalent of 6M HCl, 1.1 equivalents Captisol®-Na^+
[18] = *70 mg/mL API FB + molar equivalent of 6M HCl in water
[19] = API FB CapAcid formulation, 70 mg/mL API FB, 1.1 equivalents CapAcid (H^+ equivalents), after titration
[20] = CapAcid-API Freebase Formulation (70 mg/mL API FB, 1.1 molar equivalent CapAcid), after pH titration with NaOH or HCl
[21] = Captisol®-Na^+ formulation, *70 mg/mL API FB + 6M HCl, 1.1 molar equivalent Captisol®-Na^+
[22] = 1:1 ratio of API to CapAcid (relative to the cyclodextrin), water
[23] = 2:1 ratio of API to CapAcid (relative to the cyclodextrin), water
[24] = concentration test solution diluted to 20 mg/mL, with benzethonium chloride

NCC[C@H](O)C(=O)N[C@@H]1C[C@H](N)[C@@H](O[C@H]2O[C@H](CN)[C@@H](O)[C@H](O)[C@H]2O)[C@H](O)[C@H]1O[C@H]1O[C@H](CO)[C@@H](O)[C@H](N)[C@H]1O [Amikacin]
pH of the solution prior to titration [1, 14]: 1.28 | pH of the solution prior to titration [1, 15]: 1.13 and 1.25 | pKa [2]: 8.1^14 | Osmolality [3, 16]: 287 mOsmol/kg | Osmolality [3, 17]: 504.3 mOsmol/kg | Osmolality [3, 18]: 287* mOsm/kg | Osmolality [3, 19]: 268 mOsmol/kg and 252.2 mOsmol/kg | Osmolality [3, 20]: 1: 268 mOsm/kg and 2: 252.3 mOsm/kg | Osmolality [3, 21]: 504.3* mOsm/kg

CC(=O)[C@H]1CC[C@H]2[C@@H]3CC[C@H]4C[C@H](O)CC[C@]4(C)[C@H]3CC[C@]12C [Brexanolone]
oral bioavailability [4]: poor

CCOC(=O)c1ncn2c1CN(C)C(=O)c1cc(F)ccc1-2 [Flumazenil]
Successful in a 70 mg/mL API-CapAcid Formulation (Y/N) ([5]; water): unsuccessful | pKa [2]: 2.87^21 | Reported Freebase Solubility [6]: 1.2 mg/mL

N=C(N)c1ccc2cc(OC(=O)c3ccc(N=C(N)N)cc3)ccc2c1 [Nafamostat]
pH of the solution before titration ([1]; 1:1 ratio of API to CapAcid): 0.49 | final pH ([1]; 1:1 ratio of API to CapAcid): 6.99 | pH of the solution before titration ([1]; 2:1 ratio of API to CapAcid): 1.55 | final pH ([1]; 2:1 ratio of API to CapAcid): 6.96 | concentration (FB equivalents) at which the freebase dissolved [5, 22]: 33300 µg/mL | concentration (FB equivalents) at which the freebase dissolved [5, 23]: 3000 µg/mL | concentration at which the freebase dissolved ([5]; API FB with Captisol® Sodium 1 molar equivalent, water, stirring 30 minutes): ~16700 µg/mL | Osmolality ([7]; API FB with Captisol® Sodium, 1 molar equivalent relative to the cyclodextrin, after 48 hours): 354.3 mOsm/Kg

CO[C@H]1C[C@@H]2CC[C@@H](C)[C@@](O)(O2)C(=O)C(=O)N2CCCC[C@H]2C(=O)O[C@H]([C@H](C)C[C@@H]2CC[C@@H](O)[C@H](OC)C2)CC(=O)[C@H](C)/C=C(\C)[C@@H](O)[C@@H](OC)C(=O)[C@H](C)C[C@H](C)/C=C/C=C/C=C/1C [Rapamycin, rapamycin]
reported strongest acidic pKa [8]: 9.96 | strongest basic pKa [8]: −3

CC(N)C12CC3CC(CC(C3)C1)C2 (stereo not shown) [Rimantadine HCl]
pH [1, 24]: 6.83 | dissolution at 50 mg/mL, FB equivalents ([9]; HPLC grade water with 0.01% benzethonium chloride): did not dissolve | solubility ([9]; pH 6.83, aqueous with cosolvent or surfactant or cyclodextrin, thermodynamic from solid, HPLC grade water, stirred overnight, read-out: concentration at which the salt was soluble in water (FB equivalents)): 20 mg/mL | dissolution state of the formulation ([10]; HCl): fully dissolved; also recorded: incompletely dissolved | Osmolality [7, 24]: 205 mOsm/kg

CC(N)C12CC3CC(CC(C3)C1)C2 (stereo not shown) [Rimantadine]
pH of the solution prior to titration ([1]; 20 mg/mL API HCl (FB equivalent), 1.1 equivalents Captisol®-Na^+, before NaOH): 4.65 | pH of the solution prior to titration [1, 15]: 1.93 | pH ([1]; CapAcid-API Freebase Formulation (70 mg/mL API FB, 1.1 molar equivalent CapAcid), final pH after titration and dilution): 6.98 | Successful in a 70 mg/mL API-CapAcid Formulation (Y/N) ([5]; water, listed as Rimantidine): prepared at 70 mg/mL without issue | Osmolality ([7]; 20 mg/mL API HCl (FB equivalent), 1.1 equivalents Captisol®-Na^+): 297.3 mOsmol/kg | Osmolality ([7]; API Salt in water, ***20 mg/mL FB equivalents): 195.3 mOsm/kg | solubility [11]: ~20 mg/mL | osmolality and pH in words ([3]; 70 mg/mL API-Cap formulation): isosmotic and PH neutral | Osmolality [3, 19]: 301.7 mOsmol/kg | Osmolality [3, 20]: 301.7 mOsm/kg | Osmolality ([3]; Captisol®-Na^+ formulation of API salt, ***20 mg/mL FB equivalents, 1.1 molar equivalent Captisol®-Na^+): 297.3*** mOsm/kg

CN(C)c1cc(NC(=O)CNC(C)(C)C)c(O)c2c1C[C@H]1C[C@H]3[C@H](N(C)C)C(O)=C(C(N)=O)C(=O)[C@@]3(O)C(O)=C1C2=O [Tigecycline, tigecycline]
stability of the formulation [12]: degradation after 24 hours | pH of the solution prior to titration [1, 14]: 5.61 | pH of the solution prior to titration [1, 15]: 5.19 and 5.37 | Osmolality [3, 16]: 138.3 mOsmol/kg | Osmolality [3, 17]: 330.3 mOsmol/kg | Osmolality ([3]; 70 mg/mL FB, 1.1 equivalents CapAcid, 1 mL scale, recorded the next day after the solution had turned yellow-brown): 158.7 mOsmol/kg | Osmolality [3, 18]: 138.3* mOsm/kg | Osmolality [3, 19]: 99.3 mOsmol/kg and 92.7 mOsmol/kg | Osmolality [3, 20]: 1: 99.3 mOsm/kg and 2: 92.7 mOsm/kg | Osmolality [3, 21]: 330.3* mOsm/kg | Reported Freebase Solubility [6]: 0.45 mg/mL

CCCN(CCc1cccs1)[C@H]1CCc2c(O)cccc2C1 [rotigotine]
pH of the ethanol solution prior to titration ([13]; API FB 100 mg + CapAcid 1 molar equivalent (H^+) in 10 mL 200 proof ethanol): 5.63 | dissolution of 70 mg of the ethanol-prepared API-CapAcid solid in 1 mL water ([13]; visual, vortexed): did not dissolve in water | pH of the solution before titration ([1]; 1:1 ratio of API to CapAcid): 0.93 | final pH ([1]; 1:1 ratio of API to CapAcid): 5.49 | pH of the solution before titration ([1]; 2:1 ratio of API to CapAcid): 1.66 | final pH ([1]; 2:1 ratio of API to CapAcid): 5.51 | concentration (FB equivalents) at which the freebase dissolved [5, 22]: 10000 µg/mL | concentration (FB equivalents) at which the freebase dissolved [5, 23]: 3000 µg/mL | dissolution by visual inspection ([5]; 2:1 ratio of API to CapAcid, 100 mg FB in 30 mL water (3 mg/mL)): most of the FB dissolved | solubility compared to higher API:captisol ratio ([10]; 1:1 ratio to captisol compared to 2:1 ratio): superior solubility | appearance at higher API:captisol ratio ([10]; 2:1 ratio to captisol): precipitation | pKa (amine) [2]: 10.97 | pKa (phenol) [2]: 10.03 | Reported Salt Solubility [6]: 3.51 mg/mL^17
